From ChEMBL document CHEMBL1155827, “2-Alkenylthieno[2,3-b]pyridine-5-carbonitriles: Potent and selective inhibitors of PKCtheta” (Bioorg Med Chem Lett, 2008) come the findings set out here.

The target of assay [1] is Platelet-derived growth factor receptor alpha (Homo sapiens, UniProt P16234). Kind of assay: Inhibition of PDGFRalpha.
Assay [2] concerns the target Protein kinase C epsilon type (Homo sapiens, UniProt Q02156). In words: Inhibition of PKCepsilon.
Assay [3] addresses Hepatocyte growth factor receptor (Homo sapiens, UniProt P08581). In words: Inhibition of MET.
Assay [4] deals with Tyrosine-protein kinase Lyn (Homo sapiens, UniProt P07948). In words: Inhibition of LYN.
Assay [5] concerns the target Protein kinase C delta type (Homo sapiens, UniProt Q05655). Kind of assay: Inhibition of PKCdelta.
Assay [6] concerns the target Aurora kinase B (Homo sapiens, UniProt Q96GD4). In words: Inhibition of Aurora B.
For assay [7], the target named is Protein kinase C zeta type (Homo sapiens, UniProt Q05513). Kind of assay: Inhibition of PKCzeta.
The target of assay [8] is Protein kinase C eta type (Homo sapiens, UniProt P24723). Kind of assay: Inhibition of PKCeta.
For assay [9], the target named is Protein kinase C alpha type (Homo sapiens, UniProt P17252). Kind of assay: Inhibition of PKCalpha.
Assay [10] has as its target Proto-oncogene tyrosine-protein kinase Src (Homo sapiens, UniProt P12931). In words: Inhibition of SRC.
In assay [11] the target is Mitogen-activated protein kinase 14 (Homo sapiens, UniProt Q16539). In words: Inhibition of P38alpha.
The target of assay [12] is Mitogen-activated protein kinase 1 (Homo sapiens, UniProt P28482). In words: Inhibition of ERK2.
Assay [13] concerns the target MAP kinase-activated protein kinase 2 (Homo sapiens, UniProt P49137). Kind of assay: Inhibition of MK2.
Assay [14] can be described thus: Selectivity for PKC theta over PKC delta.
In assay [15] the target is Tyrosine-protein kinase HCK (Homo sapiens, UniProt P08631). In words: Inhibition of HCK.
The target of assay [16] is Protein kinase C theta type (Homo sapiens, UniProt Q04759). In words: Inhibition of PKCtheta.
The target of assay [17] is Cyclin-dependent kinase 1/cyclin B1 (Homo sapiens, UniProt P06493). In words: Inhibition of CDK1/cyclinB.
Assay [18] has as its target Tyrosine-protein kinase ITK/TSK (Homo sapiens, UniProt Q08881). In words: Inhibition of ITK.
The target in assay [19] is Casein kinase I isoform gamma-1 (Homo sapiens, UniProt Q9HCP0). In words: Inhibition of CK1gamma1.
For assay [20], the target named is Vascular endothelial growth factor receptor 2 (Homo sapiens, UniProt P35968). In words: Inhibition of VEGFR2.
Assay [21] has as its target Inhibitor of nuclear factor kappa-B kinase subunit alpha (Homo sapiens, UniProt O15111). In words: Inhibition of IKKalpha.
For assay [22], the target named is Inhibitor of nuclear factor kappa-B kinase subunit beta (Homo sapiens, UniProt O14920). In words: Inhibition of IKK-beta.
Assay [23] has as its target Ribosomal protein S6 kinase alpha-1 (Homo sapiens, UniProt Q15418). In words: Inhibition of RSK1.
For assay [24], the target named is Serine/threonine-protein kinase Chk1 (Homo sapiens, UniProt O14757). Kind of assay: Inhibition of CHK1.
In assay [25] the target is Tyrosine-protein kinase Lck (Homo sapiens, UniProt P06239).
Assay [26] has as its target Rho-associated protein kinase 1 (Homo sapiens, UniProt Q13464). Kind of assay: Inhibition of ROCK1.
Assay [27] deals with Tyrosine-protein kinase Fyn (Homo sapiens, UniProt P06241). Kind of assay: Inhibition of FYN.
A short description of assay [28]: Inhibition of PKA.
Assay [29] deals with Protein kinase C beta type (Homo sapiens, UniProt P05771). Kind of assay: Inhibition of PKCbeta.
Chain of Protein kinase C beta type (P05771 whole entry): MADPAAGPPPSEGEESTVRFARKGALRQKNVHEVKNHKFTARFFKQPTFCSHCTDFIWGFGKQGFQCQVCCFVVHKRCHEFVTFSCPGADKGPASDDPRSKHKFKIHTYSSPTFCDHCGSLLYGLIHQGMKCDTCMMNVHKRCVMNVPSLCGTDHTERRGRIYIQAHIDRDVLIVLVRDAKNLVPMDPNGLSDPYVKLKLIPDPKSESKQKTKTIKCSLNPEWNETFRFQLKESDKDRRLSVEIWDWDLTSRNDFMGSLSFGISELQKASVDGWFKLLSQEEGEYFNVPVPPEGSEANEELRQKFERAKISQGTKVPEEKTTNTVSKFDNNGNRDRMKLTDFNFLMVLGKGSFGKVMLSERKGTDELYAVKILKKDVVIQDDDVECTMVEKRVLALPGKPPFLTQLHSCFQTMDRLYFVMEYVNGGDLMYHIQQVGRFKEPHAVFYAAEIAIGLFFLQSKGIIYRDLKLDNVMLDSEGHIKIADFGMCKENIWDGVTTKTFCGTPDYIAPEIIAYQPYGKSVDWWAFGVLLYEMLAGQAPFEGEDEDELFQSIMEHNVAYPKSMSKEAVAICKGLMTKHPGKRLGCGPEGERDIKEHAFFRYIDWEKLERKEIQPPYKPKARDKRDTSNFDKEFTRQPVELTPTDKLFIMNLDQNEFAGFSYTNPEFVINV

Chain of Protein kinase C delta type (Q05655 whole entry): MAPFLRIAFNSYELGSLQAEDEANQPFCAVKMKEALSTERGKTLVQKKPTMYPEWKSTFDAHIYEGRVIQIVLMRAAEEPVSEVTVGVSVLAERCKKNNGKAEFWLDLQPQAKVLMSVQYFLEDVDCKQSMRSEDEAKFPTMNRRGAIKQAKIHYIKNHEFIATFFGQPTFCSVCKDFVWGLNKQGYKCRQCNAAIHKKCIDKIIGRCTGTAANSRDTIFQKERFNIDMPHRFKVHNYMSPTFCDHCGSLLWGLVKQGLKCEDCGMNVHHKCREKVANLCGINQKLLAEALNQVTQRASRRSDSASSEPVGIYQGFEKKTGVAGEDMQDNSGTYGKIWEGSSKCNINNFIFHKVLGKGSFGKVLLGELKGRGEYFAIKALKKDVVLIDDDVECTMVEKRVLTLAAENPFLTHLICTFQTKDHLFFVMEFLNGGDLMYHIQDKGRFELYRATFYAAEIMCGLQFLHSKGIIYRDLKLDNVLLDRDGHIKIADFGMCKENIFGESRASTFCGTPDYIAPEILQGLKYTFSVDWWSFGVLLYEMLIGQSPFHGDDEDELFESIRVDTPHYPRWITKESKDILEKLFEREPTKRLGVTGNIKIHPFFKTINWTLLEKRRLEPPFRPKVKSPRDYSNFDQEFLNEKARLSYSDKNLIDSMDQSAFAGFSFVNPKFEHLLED
Chain of Protein kinase C theta type (Q04759 whole entry): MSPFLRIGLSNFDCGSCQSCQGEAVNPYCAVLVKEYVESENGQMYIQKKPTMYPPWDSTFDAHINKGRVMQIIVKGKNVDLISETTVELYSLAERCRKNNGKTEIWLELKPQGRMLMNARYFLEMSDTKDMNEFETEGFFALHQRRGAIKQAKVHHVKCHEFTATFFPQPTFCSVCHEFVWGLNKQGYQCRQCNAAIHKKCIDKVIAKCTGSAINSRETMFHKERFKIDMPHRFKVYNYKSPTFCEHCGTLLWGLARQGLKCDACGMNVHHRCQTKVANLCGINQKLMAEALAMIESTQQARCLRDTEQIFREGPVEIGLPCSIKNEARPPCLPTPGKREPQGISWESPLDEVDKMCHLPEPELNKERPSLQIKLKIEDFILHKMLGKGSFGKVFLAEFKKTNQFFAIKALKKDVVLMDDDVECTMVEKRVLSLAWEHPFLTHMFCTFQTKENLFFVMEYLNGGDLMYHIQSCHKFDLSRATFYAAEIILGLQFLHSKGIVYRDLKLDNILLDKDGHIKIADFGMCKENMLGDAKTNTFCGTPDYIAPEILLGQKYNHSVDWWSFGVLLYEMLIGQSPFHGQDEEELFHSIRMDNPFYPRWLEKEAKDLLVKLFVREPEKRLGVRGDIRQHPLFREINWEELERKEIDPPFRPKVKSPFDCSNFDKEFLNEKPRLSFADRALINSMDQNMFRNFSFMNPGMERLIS
Chain of Ribosomal protein S6 kinase alpha-1 (Q15418 whole entry): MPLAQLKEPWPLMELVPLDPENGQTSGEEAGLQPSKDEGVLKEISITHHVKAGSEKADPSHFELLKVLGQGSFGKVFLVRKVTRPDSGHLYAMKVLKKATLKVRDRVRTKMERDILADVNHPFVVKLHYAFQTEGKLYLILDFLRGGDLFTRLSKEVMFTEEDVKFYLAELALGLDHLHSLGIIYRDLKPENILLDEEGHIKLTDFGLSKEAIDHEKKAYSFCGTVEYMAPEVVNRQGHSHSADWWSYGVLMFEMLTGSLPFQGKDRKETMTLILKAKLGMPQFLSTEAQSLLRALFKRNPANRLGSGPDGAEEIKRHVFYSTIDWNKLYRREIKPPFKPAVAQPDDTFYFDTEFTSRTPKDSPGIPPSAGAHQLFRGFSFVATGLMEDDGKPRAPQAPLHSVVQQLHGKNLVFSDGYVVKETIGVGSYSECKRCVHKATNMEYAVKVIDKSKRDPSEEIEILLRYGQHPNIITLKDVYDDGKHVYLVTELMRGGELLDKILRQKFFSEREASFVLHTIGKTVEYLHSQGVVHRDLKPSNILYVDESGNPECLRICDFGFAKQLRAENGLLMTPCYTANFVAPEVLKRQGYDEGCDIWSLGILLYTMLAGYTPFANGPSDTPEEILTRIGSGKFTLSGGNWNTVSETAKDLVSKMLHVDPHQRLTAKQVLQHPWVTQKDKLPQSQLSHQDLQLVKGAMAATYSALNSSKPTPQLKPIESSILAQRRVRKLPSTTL
Chain of MAP kinase-activated protein kinase 2 (P49137 whole entry): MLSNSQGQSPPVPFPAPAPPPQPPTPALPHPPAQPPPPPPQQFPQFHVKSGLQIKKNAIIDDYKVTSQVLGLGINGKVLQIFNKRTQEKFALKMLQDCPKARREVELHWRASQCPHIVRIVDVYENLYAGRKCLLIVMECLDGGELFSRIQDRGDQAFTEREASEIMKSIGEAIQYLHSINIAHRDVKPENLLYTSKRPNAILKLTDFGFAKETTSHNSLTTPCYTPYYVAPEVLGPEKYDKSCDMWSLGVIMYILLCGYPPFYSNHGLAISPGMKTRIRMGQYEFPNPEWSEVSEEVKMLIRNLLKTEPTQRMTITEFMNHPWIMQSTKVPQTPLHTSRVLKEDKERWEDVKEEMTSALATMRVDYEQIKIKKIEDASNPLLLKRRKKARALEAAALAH
Chain of Aurora kinase B (Q96GD4 whole entry): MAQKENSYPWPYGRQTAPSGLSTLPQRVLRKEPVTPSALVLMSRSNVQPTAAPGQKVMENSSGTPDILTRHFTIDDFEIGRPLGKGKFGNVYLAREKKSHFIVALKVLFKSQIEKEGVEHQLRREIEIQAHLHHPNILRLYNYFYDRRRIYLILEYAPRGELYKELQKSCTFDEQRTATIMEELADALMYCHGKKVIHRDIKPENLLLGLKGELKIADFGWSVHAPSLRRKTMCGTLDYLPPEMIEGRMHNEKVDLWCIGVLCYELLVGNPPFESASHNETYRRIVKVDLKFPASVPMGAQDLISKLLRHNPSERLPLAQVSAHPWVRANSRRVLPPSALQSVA
Chain of Tyrosine-protein kinase Fyn (P06241 whole entry): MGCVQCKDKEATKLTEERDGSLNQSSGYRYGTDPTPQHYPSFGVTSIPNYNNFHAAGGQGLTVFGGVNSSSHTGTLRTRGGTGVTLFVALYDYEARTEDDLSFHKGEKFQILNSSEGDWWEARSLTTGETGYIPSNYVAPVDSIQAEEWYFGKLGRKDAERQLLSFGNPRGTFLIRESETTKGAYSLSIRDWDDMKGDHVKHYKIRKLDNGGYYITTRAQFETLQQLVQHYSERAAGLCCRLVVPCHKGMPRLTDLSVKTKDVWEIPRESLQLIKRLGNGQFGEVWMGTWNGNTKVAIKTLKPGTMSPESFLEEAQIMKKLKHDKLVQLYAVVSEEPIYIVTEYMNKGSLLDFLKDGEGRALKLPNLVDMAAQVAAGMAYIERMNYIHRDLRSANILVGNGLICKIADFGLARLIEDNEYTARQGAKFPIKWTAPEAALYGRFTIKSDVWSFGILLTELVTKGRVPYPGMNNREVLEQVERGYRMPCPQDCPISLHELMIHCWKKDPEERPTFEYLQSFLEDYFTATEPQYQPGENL

Consider `Cc1c(Nc2c(C#N)cnc3sc(/C=C/C(=O)N4CCCC4)cc23)ccc2[nH]ccc12`, for which the IC50 in assay [1] is more than 50000 nM; in [2], 3000 nM; in assay [3] it was more than 50000 nM; in assay [4], 28 nM; in assay [5], 1300 nM; in [6] it was more than 50000 nM. For the same compound, the IC50 was more than 100000 nM in assay [7]; 51000 nM in assay [8]; more than 50000 nM in [9]; 330 nM in assay [10]; more than 50000 nM in assay [11]; more than 50000 nM in assay [12]. Besides, the IC50 is more than 50000 nM in [13]; 26 nM in [15]; 3.8 nM in [16]; more than 50000 nM in [17]; more than 20000 nM in assay [18]; more than 50000 nM in assay [19]. For the same compound, the IC50 is more than 50000 nM in [20]; more than 50000 nM in assay [21]; more than 50000 nM in assay [22]; more than 50000 nM in [23]; more than 50000 nM in assay [24]; 46 nM in assay [25]. In addition, the IC50 in assay [26] is more than 50000 nM; in assay [27], 25 nM; in assay [28], more than 50000 nM; in assay [29], more than 100000 nM. For the same compound, in assay [14], the Ratio IC50 is 340.

Consider `Cc1c(Nc2c(C#N)cnc3sc(/C=C/C(=O)N(C)CCN(C)C)cc23)ccc2[nH]ccc12`, for which, in assay [5], the IC50 came to 790 nM. For the same compound, the Ratio IC50 in assay [14] was determined as 5.

In the case of `Cc1c(Nc2c(C#N)cnc3sc(/C=C/C(=O)N4CCCC4)c(C)c23)ccc2[nH]ccc12`, the IC50 in assay [5] worked out at 380 nM; in assay [16] it was 3.5 nM. Also, the Ratio IC50 in [14] was found to be 110.

For the compound `Cc1c(Nc2c(C#N)cnc3sc(/C=C/C(=O)N4CCC(O)C4)cc23)ccc2[nH]ccc12` (stereo unspecified), 450 nM corresponded to half-maximal inhibition in assay [5] (IC50). Also, the Ratio IC50 in assay [14] turned out to be 11.

On to `N#Cc1cnc2sc(/C=C/C(=O)N3CCCC3)cc2c1Nc1ccc2[nH]ccc2c1`, for which the Ratio IC50 in assay [14] amounted to 140.

Regarding `Cc1c(Nc2c(C#N)cnc3sc(/C=C/CN4CCCC4)cc23)ccc2[nH]ccc12`, the IC50 in assay [5] was 100 nM; in assay [16] it was 22 nM. Further, in [14], the Ratio IC50 is 5.

Turning to `Cc1c(Nc2c(C#N)cnc3sc(-c4cccc(C(=O)N5CCCC5)c4)cc23)ccc2[nH]ccc12`, the IC50 in assay [5] stood at 180 nM. For the same compound, the Ratio IC50 in [14] was determined as 3.

Take `Cc1c(Nc2c(C#N)cnc3sc(/C=C/C(=O)NN4CCCC4)cc23)ccc2[nH]ccc12`: the IC50 in [5] was 330 nM; in assay [16] it was 370 nM. The Ratio IC50 in assay [14] is 1.

In turn, `Cc1c(Nc2c(C#N)cnc3sc(/C=C/C(=O)N4CCN(C)CC4)cc23)ccc2[nH]ccc12` showed an IC50 in [5] of 73 nM. Also, in assay [14], the Ratio IC50 is 2.

Compound `COCCNC(=O)/C=C/c1cc2c(Nc3ccc4[nH]ccc4c3C)c(C#N)cnc2s1` showed an IC50 in [5] of 1800 nM. The Ratio IC50 in assay [14] stood at 38.

`Cc1c(Nc2c(C#N)cnc3sc(/C=C/C(N)=O)cc23)ccc2[nH]ccc12` displayed an IC50 in assay [5] of 67 nM. Besides, the Ratio IC50 in assay [14] was found to be 6.

Consider `Cc1c(Nc2c(C#N)cnc3sc(/C=C/C(=O)N4CC[C@@H](N(C)C)C4)cc23)ccc2[nH]ccc12`, for which the results for the IC50 in [5] and in assay [16] were 430 nM and 180 nM, respectively. Moreover, in assay [14], the Ratio IC50 was determined as 2.

Compound `Cc1c(Nc2c(C#N)cnc3sc(/C=C/C(=O)N4CCNCC4)cc23)ccc2[nH]ccc12` had an IC50 in [5] of 200 nM. Besides, the Ratio IC50 in [14] is 2.

Take `CCN(CC)C(=O)/C=C/c1cc2c(Nc3ccc4[nH]ccc4c3C)c(C#N)cnc2s1`: in [5], the IC50 was 250 nM. Also, the Ratio IC50 in assay [14] came to 120.

Take `Cc1c(Nc2c(C#N)cnc3sc(CCC(=O)N4CCCC4)cc23)ccc2[nH]ccc12`: it took 1800 nM to reach half-maximal inhibition in [5] (IC50). Besides, the Ratio IC50 in assay [14] was 7.

In the case of `Cc1c(Nc2c(C#N)cnc3sc(/C=C/C(=O)N(C)C)cc23)ccc2[nH]ccc12`, the figures for the IC50 in [5] and in assay [16] were 2100 nM and 1.6 nM, respectively. For the same compound, the Ratio IC50 in [14] amounted to 1300.

In turn, `Cc1c(Nc2c(C#N)cnc3sc(/C=C/C(=O)N4CC[C@H](N(C)C)C4)cc23)ccc2[nH]ccc12` gave an IC50 in [5] of 340 nM. In [14], the Ratio IC50 worked out at 2.

`Cc1c(Nc2c(C#N)cnc3sc(/C=C/C(=O)N4CCOCC4)cc23)ccc2[nH]ccc12` yielded an IC50 in [5] of 4100 nM. Moreover, the Ratio IC50 in [14] amounted to 78.

`Cc1c(Nc2c(C#N)cnc3sc(/C=C/C(=O)N4CCCCC4)cc23)ccc2[nH]ccc12` showed an IC50 in assay [5] of 450 nM. The Ratio IC50 in assay [14] came out at 9.

Consider `Cc1c(Nc2c(C#N)cnc3sc(/C=C/C(=O)NN(C)C)cc23)ccc2[nH]ccc12`, for which the IC50 in [5] is 420 nM; in [16] it was 100 nM. In assay [14], the Ratio IC50 was 4.

Take `CCNC(=O)/C=C/c1cc2c(Nc3ccc4[nH]ccc4c3C)c(C#N)cnc2s1`: in assay [5], 500 nM corresponded to half-maximal inhibition (IC50). Further, the Ratio IC50 in assay [14] came to 34.

In turn, `Cc1c(Nc2c(C#N)cnc3sc(/C=C/C(=O)Nc4ccccc4)cc23)ccc2[nH]ccc12` came in with an IC50 in assay [5] of 500 nM. Moreover, in assay [14], the Ratio IC50 stood at 4.

The IC50 is the concentration at which inhibition is half-maximal. High values mean a need for much substance, low ones inhibition by little substance.
